# Data reported in patent publication US20040014217A1, “Methods of transfection” (priority 2000, published 2004).
# Columns and labels:
# [1] = tested on: Human airway epithelial (HAE) cells; assay: BrdU labelling of HAE cells, Example 13; type: cell-based
# Procedure: Bromodeoxyuridine (BrdU) labelling enables assessment of cell proliferation. BrdU kits are available from Zymed Laboratories, Inc., South San Francisco, Calif., U.S.A. BrdU was added to the cells at the same time as the transfection reagent and was maintained throughout the rest of the experiment until cell harvesting.
# 1HAEo-cells = assay: BrdU incorporation by flow cytometry, 1HAEo- cells; type: cell-based, human; conditions: EGTA 2 mM, aphidicolin 10 μg/ml where present
# Procedure: A BrdU Labelling and Detection Kit (Roche, Basel, Switzerland) was used, which contains the BrdU labelling reagent and the monoclonal mouse anti-BrdU. […] Cells were washed with PBS and incubated with a second layer antibody, Texas Red labelled horse anti-mouse IgG (Vector Laboratories, Peterborough, UK), for 30 minutes at 37° C. and then analysed by flow cytometry at the wavelength of 575±20 nm as detailed above. In some experiments, aphidicolin, a cell-proliferation inhibitor blocking the cell cycle in S-phase, was added to the cells to observe the effects on transfection efficiency.
# [2] = tested on: human lung fibroblasts (HFL-1 cells); assay: Thrombin-induced proliferation of HFL-1 cells after antisense (PAR-1) transfection; type: cell-based
# Procedure: Thrombin stimulates proliferation of human lung fibroblasts. Thrombin-treated human lung fibroblasts (HFL-1 cells) proliferated 53% in response to thrombin. 24 hours before treatment with thrombin, HFL-1 cells were treated with an LID complex comprising [K]16-peptide 6, lipofectin and a 20-mer antisense oligonucleotide directed against the thrombin receptor PAR-1 in the optimal ratio and mixing order prepared as described in the Materials and Methods section and the Examples above. The antisense oligonucleotide-containing complex was in contact with the cells for 4 hours. 24 hours after the start of the treatment with the complex, treatment with thrombin was carried out.
# integrins = conditions: cited from earlier work
# ECV304 cells = assay: Luciferase (pGL2) transfection of ECV304 cells; type: cell-based, human; conditions: LID complexes, 40 μg total [K]16-peptide; luciferase after 48 hours
# Procedure: Cells were seeded into 24-well plates at 5×10^4 cells per well then incubated overnight at 37° C. in complete growth medium. The following day, transfection complexes were made from the following stock solutions, all prepared in OptiMEM (Life Technologies, Paisley, U. K.), lipofectin (an equimolar mixture of the cationic lipid N-[1-(2,3-dioleyloxy)propyl]-N,N,N-trimethylammonium chloride (DOTMA) and the neutral lipid dioleoyl phosphatidylethanolamine (DOPE), obtained as “Lipofectin” from Life Technologies, Paisley, U.K.) (1 mg/ml), pGL2-control (1 mg/100 ml) and [K]16]/integrin-targeting peptide 1, 5 or 6 (0.1 mg/ml).
# Complexes were made usually with three components: oligolysine-peptide (I), plasmid DNA or RNA (D) and lipofectin (L), by mixing together the different components with an automatic pipette. […]
# Cells transformed with pGL2 were washed twice with PBS to remove serum then 100 microlitres of Reporter Lysis Buffer (Promega, Madison, Wis, U.S.A.) was added to each well and placed at […] for 15 to 30 minutes. […] Total light emission was measured for 60 seconds on an LKB 1251 Luminometer (Labtech, Uckfield, U.K.). The protein concentration of each sample was then determined with Protein Assay Reagent (BioRad, Hercules, Calif., U.S.A.) and luciferase enzyme activity expressed in terms of relative light units per milligram of protein (RLU/mg). […]
compound,measurement,setting,value
"O=c1[nH]c(=O)n([C@H]2C[C@H](O)[C@@H](CO)O2)cc1Br [BrdU, 5-Bromo-2′-deoxy-uridine]","BrdU labelling, Confluent cells",[1],7.1%
same,"BrdU labelling, Sub-confluent cells",[1],44.4%
same,"BrdU-positive cells, confluent 1HAEo- cells",1HAEo-cells,7.1%
same,"BrdU-positive cells, sub-confluent 1HAEo- cells",1HAEo-cells,43.0%
thrombin,proliferation in response to thrombin,[2],53%
GACDCRGDCFCA [Peptide 5],integrin specificity,integrins,(αv)
[K]16GACRRETAWACG (KKKKKKKKKKKKKKKKGACRRETAWACG) [oligolysine-peptide 6],transfection efficiency with increasing amounts of oligolysine-peptide 6 replacing [K]16,ECV304 cells,apparently exponential increase
"C[C@@]1(CO)[C@H](O)CC[C@@]2(C)[C@H]1CC[C@H]1C[C@@H]3C[C@@]12CC[C@]3(O)CO [aphidicolin, Aphidicolin]","BrdU-positive cells, confluent 1HAEo- cells",1HAEo-cells,5%
same,"BrdU-positive cells, sub-confluent 1HAEo- cells",1HAEo-cells,7%
